Reference: BigSolDB 2.1

C=C(C)[C@@H]1CC[C@]2(CO)CC[C@]3(C)[C@H](CC[C@@H]4[C@@]5(C)CC[C@H](O)C(C)(C)[C@@H]5CC[C@]43C)[C@@H]12
solubility (mole fraction)
Details | 278.2 K | 283.2 K | 288.2 K | 298.2 K | 308.2 K
in acetone | 0.000556 | – | 0.000866 | 0.00158 | 0.00227
in chloroform | 0.0026 | – | 0.00338 | 0.00437 | 0.00511
in cyclohexane | – | 1.68e-05 | 2.7e-05 | 6.34e-05 | 0.000167
in dichloromethane | 0.00079 | 0.000837 | 0.000897 | 0.000991 | –
in ethanol | 0.000579 | – | 0.000658 | 0.000898 | 0.00113
in ethyl acetate | 0.000963 | – | 0.00155 | 0.00207 | 0.00305
in ethyl formate | 0.000301 | – | 0.000316 | 0.000333 | 0.000395
in methanol | 0.000179 | – | 0.000248 | 0.000328 | 0.000397
in methyl acetate | 0.000598 | – | 0.000705 | 0.000797 | 0.000917
in methyl formate | 0.000187 | 0.000212 | 0.000257 | 0.000316 | –
in n-butanol | 0.00181 | – | 0.00213 | 0.00238 | 0.00271
in n-hexanol | 0.000744 | – | 0.000846 | 0.00102 | 0.00127
in n-pentanol | 0.00095 | – | 0.0012 | 0.00143 | 0.00171
in n-propanol | 0.00113 | – | 0.00127 | 0.00146 | 0.0016
